# Source: patent publication US10426751B2, “Allosteric activators for treatment of phenylketonuria” (MCMASTER UNIVERSITY, priority 2015, dated 2019)
# Where a chain is given by its changes, count along the chain named.
# Columns and labels:
# [1] = molecular target: T1, I65T PAH mutant (Homo sapiens, UniProt P00439, I65T); experiment: PKU-mutant activity enhancement without chemical denaturants, CE-UV; assay type: biochemical; conditions: ligand 20 μM, no denaturant
# T1 construct: made in house; the paragraph itself says 'eukaryotic cell cultures' (pMAL vector)
# T1 sequence (P00439 1-452 I65T): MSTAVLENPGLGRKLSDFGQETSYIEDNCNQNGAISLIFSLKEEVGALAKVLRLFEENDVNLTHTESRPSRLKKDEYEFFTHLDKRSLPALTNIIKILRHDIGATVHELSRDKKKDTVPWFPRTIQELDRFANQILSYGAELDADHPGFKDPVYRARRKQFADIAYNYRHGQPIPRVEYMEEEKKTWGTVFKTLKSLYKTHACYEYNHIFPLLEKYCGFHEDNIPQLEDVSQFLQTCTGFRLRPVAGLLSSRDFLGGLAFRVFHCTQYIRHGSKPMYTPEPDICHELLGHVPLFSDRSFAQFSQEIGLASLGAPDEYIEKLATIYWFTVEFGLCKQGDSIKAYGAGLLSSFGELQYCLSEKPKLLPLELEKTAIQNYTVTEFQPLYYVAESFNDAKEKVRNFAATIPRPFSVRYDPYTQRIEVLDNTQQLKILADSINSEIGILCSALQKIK
# Experimental: (§1) Expression of recombinant human WT-PAH and two PAH mutants ([…]) as fusion protein with maltose-binding protein in […] using pMAL expression vector was performed by the Martinez laboratory at the University of Bergen as described in Svebak et al., Biochem. J., 1995, 306, 589-597. Briefly, purification of the fusion proteins expressed in the pMAL vector system was performed using affinity chromatography followed by size-exclusion chromatography to remove low molecular weight components. Subsequently, the fusion proteins were cleaved by the restriction protease factor Xa and then phosphorylated by cyclic adenosine monophosphate (cAMP)-dependent protein kinase. The two clinically relevant PAH mutants, I65T and R261Q comprise single-point mutations in the regulatory and catalytic domain, respectively which are associated with highly variable phenotypes ranging from mild to classical PKU. For instance, patients with R261Q genotypes are reported to have inconsistent responses to BH4 therapy. In this work, I65T and R261Q PAH mutants were measured to have residual catalytic activities of (35±1)% and (5±0.5)% relative to WT PAH under standardized conditions (i.e., enzyme concentrations, assay buffer etc.), respectively. Stock solutions of WT-PAH and PAH mutants were prepared in enzyme reaction buffer (20 mM HEPES pH 7.0, 200 mM NaCl), and divided into separate 10 μL aliquots in 0.5 mL sterilized centrifuge tubes prior to storage at −80° C. Note that all enzyme assays were performed on aliquots of frozen enzymes thawed slowly in the fridge prior to daily use.
# (§2) Tetrameric human phenylalanine hydroxylase (PAH) enzyme kinetic assays were performed off-line under standardized conditions prior to quantification of Tyr formation by CE with UV detection. Enzyme assays were performed by first mixing together Phe (1 mM), catalase (100 nM) and PAH (0.25 μM/subunit) in a reaction buffer (20 mM HEPES and 200 mM NaCl, pH 7.0) that were equilibrated at 25° C. for 4 min. Then, ferrous (Fe^2+) ammonium sulfate (100 μM) was added to the solution for 1 min and the reaction was subsequently initiated by addition of BH4 ([…]) with DTT (5 mM) using a total volume of 100 μL. The reaction mixture was then vortexed for 60 s followed by sonication for 2 min prior to centrifugation for 10 s at 4 g and storage in a refrigerator (+4° C.). An aliquot (20 μL) was withdrawn from the quenched enzyme reaction and placed in a micro vial containing Me-Tyr as IS (100 μM) prior to CE analysis. The stability of the quenched enzyme reaction was confirmed by intermittent analysis of PAH activity over 6 h at room temperature, and no significant changes in the Tyr/IS or Phe/Tyr response ratio were measured. Enzymatic reactions were performed for both WT-PAH and two PAH mutants by pre-equilibrating each ligand for 10 min prior to addition of ferrous ion and BH4/DDT as described in enzyme reaction protocol in order to assess for ligand-induced PAH inhibition or activation.
# (§3) For instance, a recovery of 50% of residual enzyme activity was achieved without ligand when PAH was incubated in 8.0 M urea after its dilution to 0.5 M urea to trigger protein refolding. In order to further reduce enzyme reversibility, the recovery of PAH activity was subsequently assessed when it was incubated using 6.0 M GndCl for 10 min and subsequently diluted to 0.5 M GndCl in the presence or absence of screen-positive ligands (20 μM) in enzyme reaction buffer with PAH activity measurements performed by CE as described previously. […] Two lead compounds and several analogs of SA were subsequently tested using two different mutants of PAH (I65T and R261Q) without chemical denaturants after the two-tiered screening.
# [2] = molecular target: T2, R261Q PAH mutant (Homo sapiens, UniProt P00439, R261Q); experiment: as above; assay type: biochemical; conditions: ligand 20 μM, no denaturant
# T2 construct: made in house; the paragraph itself says 'eukaryotic cell cultures' (pMAL vector)
# T2 sequence (P00439 1-452 R261Q): T1 sequence (P00439 1-452 I65T) with T65I, R261Q
# Experimental: as §1, §2, §3
# [3] = molecular target: T3, PAH (Homo sapiens, UniProt P00439); conditions: read-out: Ki (weak competitive inhibitor to PAH); cited from earlier work
# T3 sequence (P00439 1-452): T1 sequence (P00439 1-452 I65T) with T65I
activity enhancement of I65T PAH mutant ([1]; listed as HI) [fold],activity enhancement of R261Q PAH mutant ([2]; listed as HI) [fold],activity enhancement of I65T PAH mutant [1] [fold],activity enhancement of R261Q PAH mutant [2] [fold],Compound,Ki [3] [µM]
~1.5,~1.5,,,"Nc1c(-c2ccc3ccccc3n2)c2ccc([N+](=O)[O-])cc2c(=O)n1Cc1ccccc1 [compound III, 3-amino-2-benzyl-7-nitro-4-(2-quinolyl)-1,2-dihydroisoquinolin-1-one]",
,,~1.5,~1.5,"Cc1ccnc(-n2c(=S)[nH]c3sc(C)c(C)c3c2=O)c1 [compound IV, 5,6-dimethyl-3-(4-methyl-2-pyridinyl)-2-thioxo-2,3-dihydrothieno[2,3-d] pyrimidin-4(1H)-one]",200
